Experimental data published in ChEMBL document CHEMBL1132744, “Synthesis and antiproliferative activity of some benzimidazole-4,7-dione derivatives” (Bioorg Med Chem Lett, 2000).

Key:
[1] = Antiproliferative activity of compound was evaluated on SupT1 cells from human non-Hodgkin lymphoma; type: functional; conditions: SUP-T1, read-out: ID50 (the source's name)
Vero [2] = experiment: The compound was evaluated for cytotoxicity against VERO cells using Lowry's test at a concentration 90 uM; type: cell-based; conditions: chlorocebus sabaeus
Vero [3] = experiment: The compound was evaluated for cytotoxicity against VERO cells using Lowry's test at a concentration 0.7 uM; type: cell-based; conditions: chlorocebus sabaeus
[4] = The compound was evaluated for cytotoxicity against VERO cells using Dye test at a concentration 90 uM; type: cell-based; conditions: chlorocebus sabaeus, read-out: Cellular growth
Vero [5] = experiment: The compound was evaluated for cytotoxicity against VERO cells using Lowry's test at a concentration 11.2 uM; type: cell-based; conditions: chlorocebus sabaeus
MCF7 = experiment: Antiproliferative activity of compound was evaluated on MCF-7 cells from human breast adenocarcinoma; type: functional; conditions: read-out: ID50 (the source's name)
[6] = The compound was evaluated for cytotoxicity against VERO cells using Dye test at a concentration 0.7 uM; type: cell-based; conditions: chlorocebus sabaeus, read-out: Cellular growth
[7] = Antiproliferative activity of compound was evaluated on Molt3 cells from human lymphoblastic leukemia; type: functional; conditions: MOLT-3, read-out: ID50 (the source's name)
[8] = The compound was evaluated for cytotoxicity against VERO cells using Dye test at a concentration 11.2 uM; type: cell-based; conditions: chlorocebus sabaeus, read-out: Cellular growth

| IC50 (MCF7) [µM] | Compound | IC50 [1] [µM] | Protein content (Vero [2]) [%] | Protein content (Vero [3]) [%] | viability at 90 µM [4] [%] | Protein content (Vero [5]) [%] | viability at 0.7 µM [6] [%] | IC50 [7] [µM] | viability at 11.2 µM [8] [%] |
| --- | --- | --- | --- | --- | --- | --- | --- | --- | --- |
| 26.4 | COC1=CC(=O)c2[nH]c(-c3ccccn3)nc2C1=O | 2.57 | 16.2 | 97.2 | 16.4 | 81.3 | 114 | 2.63 | 71.2 |
| > 90 | O=C1C(Br)=CC(=O)c2[nH]c(-c3ccccn3)nc21 | 5.57 |  |  |  |  |  | 7.52 |  |
| 40.3 | CSc1nc2c([nH]1)C(=O)C(Br)=C(Br)C2=O | 6.26 |  |  |  |  |  | 12 |  |
| > 90 | CSc1nc2c([nH]1)C(=O)/C(=N/CCCl)C=C2O | 15.3 |  |  |  |  |  | 30.6 |  |
| 62.8 | CSc1nc2c([nH]1)C(=O)C=C(Br)C2=O | 5.03 |  |  |  |  |  | 32.1 |  |
| 42.9 | CO[C@@]12[C@H](COC(N)=O)C3=C(C(=O)C(C)=C(N)C3=O)N1C[C@@H]1N[C@@H]12 [MITOMYCIN] | < 0.7 |  |  |  |  |  | 2.66 |  |
| > 90 | CN(C)C1=CC(=O)c2[nH]c(-c3ccccn3)nc2C1=O | 17.4 |  |  |  |  |  | 22.4 |  |
| > 90 | NC1=CC(=O)c2[nH]c(-c3ccccn3)nc2C1=O | 29.3 |  |  |  |  |  | 39.7 |  |
| 36 | COC1=CC(=O)c2[nH]c(SC)nc2C1=O | 5.07 |  |  |  |  |  | 20.8 |  |
| > 90 | CSc1nc2c([nH]1)C(=O)C(=N)C=C2O | 10.8 |  |  |  |  |  | 60.4 |  |
| 62.6 | CSc1nc2c([nH]1)C(=O)C=CC2=O | 2.87 | 68.9 | 102.9 | 73.6 | 86.4 | 99.3 | 1.32 | 101 |
| > 90 | CSc1nc2c([nH]1)C(=O)C=C(N(C)C)C2=O | 38 |  |  |  |  |  | 18.3 |  |
